Two compounds from patent US20120157419A1, “METHODS AND COMPOSITIONS FOR TREATING ALZHEIMER'S DISEASE” (priority 2009, published 2012) can be followed below.

Series [1] is described as follows: 14C-Aramchol radioactivity in the brain of rats after oral administration. It counts as in vivo, male Wistar rats. The note with it: for Radioactivity in brain tissues: rat brain homogenate. As to the method:
Male Wistar rats weighing 200-250 gm received a single gavage administration of ^14C-labeled-Aramchol (suspended in 0.3 ml saline), at a target dose level of 16 μCi/ml (40 μCi/kg). Aramchol is also known as “3beta-arachidyl amido, 7α,12α-dihydroxy-5-beta-cholan-24-oic acid” or “C-20 FABAC,” an amide conjugate (at position 3 of the bile acid) of arachidic and cholic acids. Groups of 3 animals were sacrificed following gavage, using ketamine anesthesia, at 3, 12, 24 or 72 hours.
Brain tissue samples were excised, homogenized in ice-cold 5M guanidine thiocyanate/HCl, pH 8, and rotated at room temperature for 4 h. Homogenates were stored at −80° C. Brain homogenates were diluted and centrifuged, and the ^14C-label was detected by mixing samples with scintillation fluid and reading in a liquid scintillation counter.

Series [2] is described as follows: Aramchol plasma levels after single oral ascending doses in normal human volunteers. The series is classed as in vivo. As to the method: To 200 μL of each plasma sample, calibrator, and QC sample were added 20 μL of 2.5 μg/mL internal standard solution in 1:1 methanol:water followed by 50 μl, of 5% acetic acid and 2 mL of methyltertbutylether. The samples were mixed on a rotating shaker for 5 minutes and centrifuged. After centrifugation, the aqueous layer of the samples was frozen and the upper (organic) layer was transferred to evaporation tubes and evaporated to dryness under a gentle stream of N2 at ˜40° C. The samples were then reconstituted in 200 μL of 5:4:1 methanol:acetonitrile:20 mM ammonium acetate, mixed, and centrifuged. 100 μL of the clear upper solution was transferred to auto-sampler vials and analyzed by UPLC-MS/MS using a Waters Acquity UPLC BEH C18, 50×2.1 mm, 1.7μ column. A sample blank (blank plasma) and reagent blank (water) were also prepared, but without internal standard added (1:1 methanol:water added instead).
Normal human volunteers (n=12) ingested Aramchol in a formulation containing sodium lauryl sulfate and carboxy methyl cellulose, in a single dose containing 30, 100, 300, or 900 mg of Aramchol. Blood was sampled at 0, 1, 3, 4, 6, 9, 12, 18, 24, 36, 48, and 72 hours following ingestion. Aramchol blood levels were measured by a mass spectroscopy-based method (Goldiner et al., J Chromatogr B Analyt Technol Biomed Life Sci 2003; 795: 35-40). Aramchol plasma levels were measurable at all doses and were dose-proportional.

The test system of series [3] is human astrocyte cells (ccf-sttg1 cell line). Kind of series: Cholesterol efflux from a human astrocyte cell line. The series is classed as cell-based. Conditions: for Concentration evoking maximal cholesterol efflux / Concentration of maximal effect on cholesterol efflux: 20 hr incubation, [3H]cholesterol-loaded ccf-sttg1 cells. Here is the method: Human astrocyte cells (1×10^6 cells/ml; ccf-sttg1 cell line) were incubated in 24 plates for 24-48 hours in 10% FCS (Fetal Calf Serum) in DMEM (Dulbecco's modified Eagle's Media) in a humidified 37° C. incubator in the presence of 7.5% CO2. After the incubation time Cholesterol loading was performed by incubating the cells for 20 hr with DMEM supplemented with 30 μg/ml cholesterol, 0.5 μCi/ml of [^3H]cholesterol and 0.2% fatty-acid-free BSA (Bovine Serum Albumin). After incubation, the cells were washed four times with PBS (Phosphate Buffered Saline) containing 0.2% fatty-acid-free BSA. Cells were then incubated for 20 hr in a humidified incubator at 37° C. in the presence of 10% CO2, with or without apolipoproteins (ApoE) or FABACs (Aramchol or Steamchol) at several concentrations. The medium was collected and centrifuged at 12000 g for 5 min to remove cellular debris. The aliquots of the supernatant were taken to count the effluxed [^3H]cholesterol. The remaining cell-associated [^3H]cholesterol was determined after extraction for at least 30 min with propan-2-ol. Efflux was determined in the presence, or absence, of apolipoproteins or FABACs. FABACs were dissolved in ethanol and added to the medium at the concentrations indicated. The amount of [^3H]cholesterol in the medium and cellular extract was quantified by liquid-scintillation counting. The radioactivity released into the medium was expressed as the fraction of the total radioactive cholesterol that was present in the supernatant of each well. The percentage efflux was calculated by dividing the radioactive counts in the efflux medium by the sum of the counts in the medium and cell extract.
Astrocyte brain cells (ccf-sttg1 cell line) were maintained under the same conditions as above (Example 3) and the effect of the 2 physiological stimulants ApoE3 and ApoE4 was tested. […] FABACs evoked a maximal cholesterol efflux at the concentrations of 2 microgram/ml (Steamchol) and 5 microgram/ml (Aramchol) while the apolipoproteins reached a maximal effect at the concentration of 10 microgram/ml. Furthermore, at the above concentrations, the % of cell cholesterol removed into the medium was about 25% higher with the FABACs as compared to the apolipoproteins. Note that the control efflux induced by the medium only is equal in both sets of experiments. The efflux at concentrations of 20 microgram/ml is problematic, since cell damage occurs at this concentration.

On to `CCCCCCCCCCCCCCCCCCCC(=O)N[C@H]1CC[C@@]2(C)[C@@H](C1)C[C@@H](O)[C@@H]1[C@@H]2C[C@H](O)[C@]2(C)[C@@H]([C@H](C)CCC(=O)O)CC[C@@H]12` [Aramchol, 3β-arachidylamido-7α,12α, dihydroxy 5β-cholan-24-oic acid], for which, in series [1] (3 hr after single gavage of 14C-labeled Aramchol (40 μCi/kg)), the “Radioactivity in brain tissues” value worked out at 0.15 cpm/mg tissue. In addition, the “Radioactivity in brain tissues” value in series [1] (12 hr after single gavage of 14C-labeled Aramchol (40 μCi/kg)) is recorded as 0.32 cpm/mg/tissue. In series [1] (single gavage, rats), the “Time at which brain radioactivity disappeared” value is about 24 h, the “Time of peak radioactivity in brain” value worked out at 12 h and the “Time radioactivity first detected in brain” value was 3 h. For the same compound, in series [2] (24 hr after a single ingestion, human), the “Aramchol plasma level at 24 hr” value is given as “high Aramchol levels”. Further, in series [2] (36 hr after a single ingestion, human), the “Aramchol plasma level at 36 hr” value is on record as “substantial levels”. In series [2] (after a single administration, humans), the “Time blood levels remain high” value is reported as “over 24 hours”. Further, the “Aramchol plasma levels versus dose” value in series [2] (single oral dose 30-900 mg, human plasma) was “dose-proportional”. The “Cholesterol efflux at 2 μg/ml” value in series [3] (2 μg/ml, compared with 5-10 μg/ml) was “Lower efflux levels”. Moreover, the “Cholesterol efflux at 20 μg/ml” value in series [3] (20 μg/ml, compared with 5-10 μg/ml) was “decrease in cholesterol efflux”. In series [3], the “Concentration evoking maximal cholesterol efflux” value amounted to 5 microgram/ml and the “Concentration of maximal effect on cholesterol efflux” value was in the range of 5 to 10 µg/mL. In addition, the “Effect on cholesterol efflux” value in series [3] (ccf-sttg1 cells, versus medium) was “increased cholesterol efflux”.
As for `CCCCCCCCCCCCCCCCCC(=O)N[C@H]1CC[C@@]2(C)[C@@H](C1)C[C@@H](O)[C@@H]1[C@@H]2C[C@H](O)[C@]2(C)[C@@H]([C@H](C)CCC(=O)O)CC[C@@H]12` [Steamchol, 3β-stearoylamido-7α,12α-dihydroxy-5β-cholan-24-oic acid], in series [3], the “Concentration evoking maximal cholesterol efflux” value worked out at 2 microgram/ml and the “Concentration of maximal effect on cholesterol efflux” value turned out to be 2 µg/mL. For the same compound, the “Potency on cholesterol efflux relative to comparator” value in series [3] (ccf-sttg1 cells) is “higher potency than Aramchol”.
